Source: ChEMBL document CHEMBL4004838, “Design and synthesis of novel phenyl -1, 4-beta-carboline-hybrid molecules as potential anticancer agents” (Eur J Med Chem, 2017)
The source made the active and inactive calls. No cut-off for these calls is given here.

Tests used:
OVCAR-3 [1] = experiment: Growth inhibition of human OVCAR3 cells assessed as cell growth at 1 uM incubated for 48 hrs by sulforhodamine B assay relative to control; assay type: functional; details: OVCAR-3, 48 h, read-out: Activity
SW-620 = experiment: Growth inhibition of human SW620 cells assessed as cell growth at 100 uM incubated for 48 hrs by sulforhodamine B assay relative to control; assay type: functional; details: SW-620, 48 h, read-out: Activity
HCC 2998 = experiment: Growth inhibition of human HCC2998 cells assessed as cell growth at 0.1 uM incubated for 48 hrs by sulforhodamine B assay relative to control; assay type: functional; details: HCC 2998, 48 h, read-out: Activity
SF-295 [2] = experiment: Growth inhibition of human SF295 cells assessed as cell growth at 1 uM incubated for 48 hrs by sulforhodamine B assay relative to control; assay type: functional; details: SF-295, 48 h, read-out: Activity
Hs-578T = experiment: Growth inhibition of human Hs 578T cells assessed as cell growth at 1 uM incubated for 48 hrs by sulforhodamine B assay relative to control; assay type: functional; details: read-out: Activity
OVCAR-3 [3] = experiment: Growth inhibition of human OVCAR3 cells assessed as cell growth at 0.01 uM incubated for 48 hrs by sulforhodamine B assay relative to control; assay type: functional; details: OVCAR-3, 48 h, read-out: Activity
MOLT-4 = experiment: Growth inhibition of human MOLT4 cells assessed as cell growth at 0.01 uM incubated for 48 hrs by sulforhodamine B assay relative to control; assay type: functional; details: MOLT-4, 48 h, read-out: Activity
Albumin = Albumin (Bos taurus, UniProt P02769); experiment: Binding affinity to Bovine serum albumin assessed as at 0.10 to 1 uM by UV-Visible spectrophotometric method; assay type: ADME; details: cattle, isolated protein
Albumin, sequence (P02769 whole entry): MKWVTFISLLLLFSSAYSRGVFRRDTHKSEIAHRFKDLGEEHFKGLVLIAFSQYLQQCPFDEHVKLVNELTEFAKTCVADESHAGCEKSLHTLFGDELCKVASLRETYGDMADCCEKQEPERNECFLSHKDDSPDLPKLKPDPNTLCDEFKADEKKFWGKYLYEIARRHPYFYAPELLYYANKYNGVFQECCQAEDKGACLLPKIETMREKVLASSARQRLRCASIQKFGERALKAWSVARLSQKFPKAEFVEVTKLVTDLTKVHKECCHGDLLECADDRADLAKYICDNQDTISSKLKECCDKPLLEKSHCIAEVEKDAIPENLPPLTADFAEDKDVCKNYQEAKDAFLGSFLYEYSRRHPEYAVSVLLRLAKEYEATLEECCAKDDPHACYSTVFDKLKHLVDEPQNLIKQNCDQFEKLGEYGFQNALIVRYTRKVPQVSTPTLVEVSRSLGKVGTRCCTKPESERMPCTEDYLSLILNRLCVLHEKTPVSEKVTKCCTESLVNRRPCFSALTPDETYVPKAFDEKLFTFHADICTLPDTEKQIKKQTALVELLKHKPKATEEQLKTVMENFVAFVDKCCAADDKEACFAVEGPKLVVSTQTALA

NCI-H460 = experiment: Growth inhibition of human NCI-H460 cells assessed as cell growth at 0.01 uM incubated for 48 hrs by sulforhodamine B assay relative to control; assay type: functional; details: NCI-H460, 48 h, read-out: Activity
HCT-15 = experiment: Growth inhibition of human HCT15 cells assessed as cell growth at 0.1 uM incubated for 48 hrs by sulforhodamine B assay relative to control; assay type: functional; details: HCT-15, 48 h, read-out: Activity
IGROV-1 [4] = experiment: Growth inhibition of human IGROV1 cells assessed as cell growth at 1 uM incubated for 48 hrs by sulforhodamine B assay relative to control; assay type: functional; details: IGROV-1, 48 h, read-out: Activity
Malme-3M = experiment: Growth inhibition of human MALME-3M cells incubated for 48 hrs by sulforhodamine B assay; assay type: functional
SR = experiment: Growth inhibition of human SR cells assessed as cell growth at 100 uM incubated for 48 hrs by sulforhodamine B assay relative to control; assay type: functional; details: read-out: Activity
LOX IMVI [5] = experiment: Growth inhibition of human LOXIMVI cells incubated for 48 hrs by sulforhodamine B assay; assay type: functional
SK-MEL-28 [6] = experiment: Growth inhibition of human SK-MEL-28 cells assessed as cell growth at 100 uM incubated for 48 hrs by sulforhodamine B assay relative to control; assay type: functional; details: SK-MEL-28, 48 h, read-out: Activity
HCT-116 = experiment: Growth inhibition of human HCT116 cells assessed as cell growth at 0.01 uM incubated for 48 hrs by sulforhodamine B assay relative to control; assay type: functional; details: HCT-116, 48 h, read-out: Activity
IGROV-1 [7] = experiment: Growth inhibition of human IGROV1 cells assessed as cell growth at 0.01 uM incubated for 48 hrs by sulforhodamine B assay relative to control; assay type: functional; details: IGROV-1, 48 h, read-out: Activity
CCRF-CEM = experiment: Growth inhibition of human CCRF-CEM cells assessed as cell growth at 0.01 uM incubated for 48 hrs by sulforhodamine B assay relative to control; assay type: functional; details: read-out: Activity
LOX IMVI [8] = experiment: Growth inhibition of human LOXIMVI cells assessed as cell growth at 100 uM incubated for 48 hrs by sulforhodamine B assay relative to control; assay type: functional; details: read-out: Activity
RPMI-8226 = experiment: Growth inhibition of human RPMI8226 cells assessed as cell growth at 100 uM incubated for 48 hrs by sulforhodamine B assay relative to control; assay type: functional; details: RPMI-8226, 48 h, read-out: Activity
SF-268 = experiment: Growth inhibition of human SF268 cells assessed as cell growth at 100 uM incubated for 48 hrs by sulforhodamine B assay relative to control; assay type: functional; details: SF-268, 48 h, read-out: Activity
Bos taurus = species: Bos taurus; experiment: Induction of calf thymus DNA intercalation assessed as compound-DNA complex formation at 5 uM incubated for 1 hr by ethidium bromide staining based agarose gel electrophoresis relative to control
NCI-H226 [9] = experiment: Growth inhibition of human NCI-H226 cells assessed as cell growth at 0.1 uM incubated for 48 hrs by sulforhodamine B assay relative to control; assay type: functional; details: NCI-H226, 48 h, read-out: Activity
U-251 = experiment: Growth inhibition of human U251 cells assessed as cell growth at 1 uM incubated for 48 hrs by sulforhodamine B assay relative to control; assay type: functional; details: U-251, 48 h, read-out: Activity
SNB-75 = experiment: Growth inhibition of human SNB75 cells assessed as cell growth at 1 uM incubated for 48 hrs by sulforhodamine B assay relative to control; assay type: functional; details: SNB-75, 48 h, read-out: Activity
UO-31 = experiment: Growth inhibition of human UO31 cells incubated for 48 hrs by sulforhodamine B assay; assay type: functional; details: UO-31, 48 h
KM12 = experiment: Growth inhibition of human KM12 cells assessed as cell growth at 0.1 uM incubated for 48 hrs by sulforhodamine B assay relative to control; assay type: functional; details: KM12, 48 h, read-out: Activity
NCI-H226 [10] = experiment: Growth inhibition of human NCI-H226 cells assessed as cell growth at 1 uM incubated for 48 hrs by sulforhodamine B assay relative to control; assay type: functional; details: NCI-H226, 48 h, read-out: Activity
SK-MEL-28 [11] = experiment: Growth inhibition of human SK-MEL-28 cells incubated for 48 hrs by sulforhodamine B assay; assay type: functional; details: SK-MEL-28, 48 h
SK-MEL-5 = experiment: Growth inhibition of human SK-MEL-5 cells assessed as cell growth at 100 uM incubated for 48 hrs by sulforhodamine B assay relative to control; assay type: functional; details: SK-MEL-5, 48 h, read-out: Activity
SF-295 [12] = experiment: Growth inhibition of human SF295 cells assessed as cell growth at 0.01 uM incubated for 48 hrs by sulforhodamine B assay relative to control; assay type: functional; details: SF-295, 48 h, read-out: Activity
[13] = read-out: LC50 (the source's name)
[14] = read-out: pLC50 (the source's name) (converted)

SMILES: c1ccc2c3c([nH]c2c1)C(c1ccc(C2NCCc4c2[nH]c2ccccc42)cc1)NCC3 (racemic)
- growth at 1 µM (OVCAR-3 [1]): 65%
- growth at 100 µM (SW-620): 87%
- growth at 0.1 µM (HCC 2998): 81%
- growth at 1 µM (SF-295 [2]): 84%
- growth at 1 µM (Hs-578T): 68%
- growth at 0.01 µM (OVCAR-3 [3]): 100%
- growth at 0.01 µM (MOLT-4): 110%
- Activity (Albumin): Active
- growth at 0.01 µM (NCI-H460): 105%
- growth at 0.1 µM (HCT-15): 95%
- growth at 1 µM (IGROV-1 [4]): 70%
- GI50 (Malme-3M; read-out: GI50): 1.55 µM
- CC50 (Malme-3M; [13]): 6.24 µM
- TGI (Malme-3M; read-out: TGI): 3.11 µM
- GI50 (Malme-3M; read-out: pGI50 (converted)): 1.55 µM
- CC50 (Malme-3M; [14]): 6.17 µM
- TGI (Malme-3M; read-out: pTGI (converted)): 3.09 µM
- growth at 100 µM (SR): -68%
- GI50 (LOX IMVI [5]; read-out: GI50): 1.96 µM
- CC50 (LOX IMVI [5]; [13]): 1.1 µM
- TGI (LOX IMVI [5]; read-out: TGI): 4.5 µM
- GI50 (LOX IMVI [5]; read-out: pGI50 (converted)): 0.195 µM
- CC50 (LOX IMVI [5]; [14]): 1.1 µM
- TGI (LOX IMVI [5]; read-out: pTGI (converted)): 4.47 µM
- growth at 100 µM (SK-MEL-28 [6]): 93%
- growth at 0.01 µM (HCT-116): 91%
- growth at 0.01 µM (IGROV-1 [7]): 99%
- growth at 0.01 µM (CCRF-CEM): 98%
- growth at 100 µM (LOX IMVI [8]): 84%
- growth at 100 µM (RPMI-8226): 75%
- growth at 100 µM (SF-268): 83%
- Activity (Bos taurus): Active
- growth at 0.1 µM (NCI-H226 [9]): 95%
- growth at 1 µM (U-251): 4%
- growth at 1 µM (SNB-75): 46%
- GI50 (UO-31; read-out: GI50): 1.04 µM
- CC50 (UO-31; [13]): 4.92 µM
- TGI (UO-31; read-out: TGI): 2.26 µM
- GI50 (UO-31; read-out: pGI50 (converted)): 1.05 µM
- CC50 (UO-31; [14]): 4.9 µM
- TGI (UO-31; read-out: pTGI (converted)): 2.24 µM
- growth at 0.1 µM (KM12): 95%
- growth at 1 µM (NCI-H226 [10]): 94%
- GI50 (SK-MEL-28 [11]; read-out: GI50): 1.68 µM
- CC50 (SK-MEL-28 [11]; [13]): 5.99 µM
- TGI (SK-MEL-28 [11]; read-out: TGI): 3.18 µM
- GI50 (SK-MEL-28 [11]; read-out: pGI50 (converted)): 1.7 µM
- CC50 (SK-MEL-28 [11]; [14]): 6.03 µM
- TGI (SK-MEL-28 [11]; read-out: pTGI (converted)): 3.16 µM
- growth at 100 µM (SK-MEL-5): 93%
- growth at 0.01 µM (SF-295 [12]): 90%

SMILES: c1ccc2[nH]c(-c3ccc(-c4nccc5c4[nH]c4ccccc45)cc3)nc2c1
- growth at 1 µM (OVCAR-3 [1]): 92%
- growth at 100 µM (SW-620): 33%
- growth at 0.1 µM (HCC 2998): 95%
- growth at 1 µM (SF-295 [2]): 94%
- growth at 1 µM (Hs-578T): 91%
- growth at 0.01 µM (OVCAR-3 [3]): 101%
- growth at 0.01 µM (MOLT-4): 96%
- Activity (Albumin): Active
- growth at 0.01 µM (NCI-H460): 107%
- growth at 0.1 µM (HCT-15): 97%
- growth at 1 µM (IGROV-1 [4]): 102%
- GI50 (Malme-3M; read-out: GI50): 1.85 µM
- CC50 (Malme-3M; [13]): 7.07 µM
- TGI (Malme-3M; read-out: TGI): 3.61 µM
- GI50 (Malme-3M; read-out: pGI50 (converted)): 1.86 µM
- CC50 (Malme-3M; [14]): 7.08 µM
- TGI (Malme-3M; read-out: pTGI (converted)): 3.63 µM
- growth at 100 µM (SR): 34%
- GI50 (LOX IMVI [5]; read-out: GI50): 1.67 µM
- TGI (LOX IMVI [5]; read-out: TGI): 3.82 µM
- GI50 (LOX IMVI [5]; read-out: pGI50 (converted)): 1.66 µM
- TGI (LOX IMVI [5]; read-out: pTGI (converted)): 3.8 µM
- growth at 100 µM (SK-MEL-28 [6]): 69%
- growth at 0.01 µM (HCT-116): 92%
- growth at 0.01 µM (IGROV-1 [7]): 99%
- growth at 0.01 µM (CCRF-CEM): 102%
- growth at 100 µM (LOX IMVI [8]): 49%
- growth at 100 µM (RPMI-8226): 43%
- growth at 100 µM (SF-268): 52%
- Activity (Bos taurus): Active
- growth at 0.1 µM (NCI-H226 [9]): 104%
- growth at 1 µM (U-251): 98%
- growth at 1 µM (SNB-75): 74%
- GI50 (UO-31; read-out: GI50): 1.69 µM
- CC50 (UO-31; [13]): 6.32 µM
- TGI (UO-31; read-out: TGI): 3.27 µM
- GI50 (UO-31; read-out: pGI50 (converted)): 1.7 µM
- CC50 (UO-31; [14]): 6.31 µM
- TGI (UO-31; read-out: pTGI (converted)): 3.24 µM
- growth at 0.1 µM (KM12): 96%
- growth at 1 µM (NCI-H226 [10]): 96%
- GI50 (SK-MEL-28 [11]; read-out: GI50): 1.96 µM
- CC50 (SK-MEL-28 [11]; [13]): 7.2 µM
- TGI (SK-MEL-28 [11]; read-out: TGI): 3.75 µM
- GI50 (SK-MEL-28 [11]; read-out: pGI50 (converted)): 1.95 µM
- CC50 (SK-MEL-28 [11]; [14]): 7.24 µM
- TGI (SK-MEL-28 [11]; read-out: pTGI (converted)): 3.72 µM
- growth at 100 µM (SK-MEL-5): 86%
- growth at 0.01 µM (SF-295 [12]): 90%
